Measured values reported in patent publication US7867990B2, “Steroid hormone products and methods for preparing them” (Ortho-McNeil Pharmaceutical, Inc., priority 2001, dated 2011).

Legend:
[1] = Dissolution of norgestimate co-milled with lactose 1:9 in 100 ml 0.05% Tween 20 as a function of storage time; assay type: physicochemical; settings: for Norgestimate Concentration Time = 0 Days: storage 0 days; for Norgestimate Concentration Time = 44 Days: stored 44 days at 40° C./75% RH
[2] = Dissolution of norgestimate from tablets manufactured by dry processing, pilot and production scale; assay type: physicochemical; settings: dry-processed tablets
Method: Differences in the dissolution behavior of norgestimate from tablets manufactured by dry processing on both a pilot scale and a production scale were also evaluated. The minimum mechanical energy of 0.1 hp-min/kg can be imparted in a dry process using a geometric tumbler blender equipped for additional mixing energy with blades or choppers. A progestin such as norgestimate can be combined with lactose and additives. Increasing the length of processing time with the blades or choppers in use would impart sufficient energy to produce the forms identified in this invention. […] The important of dissolution rate as a function of mixing time is also noted.

[3] = Dissolution of norgestimate from tablets manufactured by wet processing, initial and after accelerated storage; assay type: physicochemical; settings: for Percent Norgestimate Dissolved in 30 Minutes, 1 month 40° C./75% RH: wet-processed tablets stored unprotected; for Percent Norgestimate Dissolved in 30 Minutes, Initial: wet-processed tablets
Excerpt: The data in Table 4 further support the existence of a high energy form of norgestimate in the presence of lactose. […] Like the data reported in Table 2, dissolution properties are dependent on storage conditions. However it is apparent that the extent of such changes is further dependent on the mixing energetics imparted during the process.

[4] = PXRD pattern of norgestimate:lactose mixtures after milling; assay type: physicochemical; settings: milled 20 minutes, mill type not specified at the place
Method: Research efforts were thus made to generate the non-crystalline form of norgestimate in the presence and absence of lactose via physical and mechanical processes. Various mixtures of norgestimate and lactose were prepared. To permit qualitative or semi-quantitative analysis, the ingredients were thoroughly mixed in ratios of 1:1 and 1:9 by either dissolving them in a co-solvent mixture or by co-grinding. Qualitative assessment of the degree of crystallinity was performed employing Powder X-Ray Diffractometry (PXRD).
Mixtures of norgestimate and lactose, in amorphous and crystalline forms, were milled for 20 minutes. The amorphous state of each ingredient and of the mixture was confirmed by powder x-ray pattern diffraction (PXRD).

[5] = Physical stability (recrystallization) of amorphous materials in humidity chambers, followed by PXRD; settings: for Stability of Amorphous Norgestimate (onset of norgestimate recrystallization), 0% RH: 0% RH humidity chamber; for Stability of Amorphous Norgestimate (onset of norgestimate recrystallization), 0% RH / Stability of Amorphous Norgestimate (onset of norgestimate recrystallization), 31% RH / Stability of Amorphous Norgestimate (onset of norgestimate recrystallization), 76% RH: PXRD; for Stability of Amorphous Norgestimate (onset of norgestimate recrystallization), 31% RH: 31% RH humidity chamber; for Stability of Amorphous Norgestimate (onset of norgestimate recrystallization), 76% RH: 76% RH humidity chamber
[6] = DSC thermal analysis: glass-transition temperature (Tg) and crystallization exotherm (Tc); assay type: physicochemical
Method: The lactose/norgestimate mixtures made as in Example 2 were subjected to thermal analysis, according to conventional Differential Scanning Calorimetry (DSC). […] Glass-transition temperature measurements generally entail trial runs on a DSC to obtain an optimal method for observing glass-transition events. […] Some amorphous norgestimate samples produce a weak Tg event at 122-123° C., while other samples shown an exothermic event, probably because of norgestimate crystallization. All of the norgestimate samples show a similar endothermic event at 226-228° C. The thermal gravimetric analysis (TGA) of samples show rapid weight loss at that temperature, therefore, the endotherm over 220° C. primarily corresponds to decomposition. The Merck Index lists the melting temperature of the crystalline norgestimate at 214-218° C. […] This thermal event (Tc) was used to measure the stability of different simulated drug products. The temperature of Tc- should be higher if norgestimate is stabilized by lactose.

[7] = Dissolution of crystalline and non-crystalline norgestimate (USP Apparatus 2, 75 rpm, 600 ml of 0.05% Tween 20); assay type: physicochemical; settings: 600 ml 0.05% Tween 20
Method: Employing the current dissolution standard (USP Apparatus 2, 75 rpm, 600 ml of 0.05% Tween 20), the dissolution rates and extent of dissolution for individual samples of both crystalline and non-crystalline norgestimate were compared. […]

For `C#C[C@]1(OC(C)=O)CC[C@H]2[C@@H]3CCC4=CC(=NO)CC[C@@H]4[C@H]3CC[C@@]21CC` (mixture of isomers) [Norgestimate, norgestimate], which “Norgestimate Concentration Time = 0 Days” value ([1]; dissolution time 10 min) is on record?
The value was 5.3 µg/mL.

What about the “Norgestimate Concentration Time = 44 Days” value ([1]; dissolution time 10 min) of the same molecule?
Its value is 2.4 µg/mL.

What about the “Norgestimate Concentration Time = 0 Days” value ([1]; dissolution time 20 min) of the same molecule?
Its value is 5.1 µg/mL.

And the “Norgestimate Concentration Time = 44 Days” value ([1]; dissolution time 20 min)?
Its value is 5.2 µg/mL.

What about the “Norgestimate Concentration Time = 0 Days” value ([1]; dissolution time 30 min) of the same molecule?
Its value is 6.2 µg/mL.

What about the “Norgestimate Concentration Time = 44 Days” value ([1]; dissolution time 30 min) of the same molecule?
Its value is 6.5 µg/mL.

And the “Norgestimate Concentration Time = 0 Days” value ([1]; dissolution time 60 min)?
The value was 8.7 µg/mL.

What about the “Norgestimate Concentration Time = 44 Days” value ([1]; dissolution time 60 min) of the same molecule?
Its value is 5.9 µg/mL.

And the “Norgestimate Concentration Time = 0 Days” value ([1]; dissolution time 240 min)?
The value was 10 µg/mL.

What about the “Norgestimate Concentration Time = 44 Days” value ([1]; dissolution time 240 min) of the same molecule?
The value was 6.7 µg/mL.

And the “Norgestimate Concentration Time = 0 Days” value ([1]; dissolution time 720 min)?
Its value is 10.3 µg/mL.

What about the “Norgestimate Concentration Time = 44 Days” value ([1]; dissolution time 720 min) of the same molecule?
The value was 7.3 µg/mL.

And the “Percent Norgestimate Dissolved in 20 Minutes” value ([2]; pilot scale, mixing time 5 minutes)?
Its value is 78.4%.

And the “Percent Norgestimate Dissolved in 20 Minutes” value ([2]; pilot scale, mixing time 10 minutes)?
The value was 85%.

And the “Percent Norgestimate Dissolved in 20 Minutes” value ([2]; pilot scale, mixing time 20 minutes)?
The value was 88.5%.

What about the “Percent Norgestimate Dissolved in 20 Minutes” value ([2]; pilot scale, mixing time 30 minutes) of the same molecule?
The value was 97.4%.

What about the “Percent Norgestimate Dissolved in 20 Minutes” value ([2]; pilot scale, mixing time 33 minutes) of the same molecule?
The value was 93.6%.

What about the “Percent Norgestimate Dissolved in 20 Minutes” value ([2]; pilot scale, mixing time […]) of the same molecule?
Its value is 74.9%.

What about the “Percent Norgestimate Dissolved in 20 Minutes” value ([2]; production scale, mixing time 4.8 minutes) of the same molecule?
The value was 64.7%.

And the “Percent Norgestimate Dissolved in 20 Minutes” value ([2]; production scale, mixing time 12 minutes)?
The value was 81.2%.

And the “Percent Norgestimate Dissolved in 20 Minutes” value ([2]; production scale, mixing time 15 minutes)?
Its value is 90.3%.

What about the “Percent Norgestimate Dissolved in 20 Minutes” value ([2]; production scale, mixing time 30 minutes) of the same molecule?
Its value is 92.8%.

And the “Percent Norgestimate Dissolved in 20 Minutes” value ([2]; production scale, mixing time 45 minutes)?
The value was 96.2%.

What about the “Percent Norgestimate Dissolved in 20 Minutes” value ([2]; production scale, mixing time 60 minutes) of the same molecule?
Its value is 97.4%.

What about the “Percent Norgestimate Dissolved in 20 Minutes” value ([2]; production scale, mixing time 75 minutes) of the same molecule?
The value was 97.2%.

And the “Percent Norgestimate Dissolved in 30 Minutes, 1 month 40° C./75% RH” value ([3]; blend time 0 minutes)?
Its value is 36%.

And the “Percent Norgestimate Dissolved in 30 Minutes, 1 month 40° C./75% RH” value ([3]; blend time 2* minutes)?
The value was 45%.

And the “Percent Norgestimate Dissolved in 30 Minutes, 1 month 40° C./75% RH” value ([3]; blend time 20 minutes)?
The value was 45%.

And the “Percent Norgestimate Dissolved in 30 Minutes, 1 month 40° C./75% RH” value ([3]; blend time 40 minutes)?
The value was 46%.

What about the “Percent Norgestimate Dissolved in 30 Minutes, 1 month 40° C./75% RH” value ([3]; blend time 60 minutes) of the same molecule?
The value was 85%.

What about the “Percent Norgestimate Dissolved in 30 Minutes, Initial” value ([3]; blend time 0 minutes) of the same molecule?
The value was 75.4%.

And the “Percent Norgestimate Dissolved in 30 Minutes, Initial” value ([3]; blend time 2* minutes)?
The value was 91%.

And the “Percent Norgestimate Dissolved in 30 Minutes, Initial” value ([3]; blend time 20 minutes)?
Its value is 90.1%.

And the “Percent Norgestimate Dissolved in 30 Minutes, Initial” value ([3]; blend time 40 minutes)?
The value was 92.6%.

And the “Percent Norgestimate Dissolved in 30 Minutes, Initial” value ([3]; blend time 60 minutes)?
The value was 94.5%.

What about the “Solid-state form of norgestimate after milling with lactose (PXRD)” value [4] of the same molecule?
The value was “non-crystalline”.

What about the “Stability of Amorphous Norgestimate (onset of norgestimate recrystallization), 0% RH” value [5] of the same molecule?
Its value is under 3 days.

And the “Stability of Amorphous Norgestimate (onset of norgestimate recrystallization), 31% RH” value [5]?
Its value is under 1 day days.

What about the “Stability of Amorphous Norgestimate (onset of norgestimate recrystallization), 76% RH” value [5] of the same molecule?
The value was under 1 day days.

And the “Time to recrystallization of norgestimate” value ([5]; in the absence of lactose, room temperature, 0% RH chamber)?
Its value is at most 3 days.

And the “Time norgestimate remained partially crystalline” value ([5]; norgestimate co-milled with lactose 1:9, approximately 40° C. at 75% RH)?
Its value is “at least 44 days”.

With `OC[C@H]1O[C@@H](O[C@H]2[C@H](O)[C@@H](O)C(O)O[C@@H]2CO)[C@H](O)[C@@H](O)[C@H]1O` (stereo partly shown) [lactose] as the molecule, how does the “Solid-state form of lactose after milling with norgestimate (PXRD)” value [4] read?
Its value is “partially crystalline”.

Which “Tg (glass-transition temperature)” value [6] does the source give for `OC[C@H]1O[C@@H](O[C@H]2[C@H](O)[C@@H](O)C(O)O[C@@H]2CO)[C@H](O)[C@@H](O)[C@H]1O` (stereo partly shown) [Amorphous lactose, lactose] here?
The value was 114-115 °C.

For `C#C[C@]1(OC(C)=O)CC[C@H]2[C@@H]3CCC4=CC(=NO)CC[C@@H]4[C@H]3CC[C@@]21CC` [Crystalline Norgestimate, norgestimate], which Norgestimate concentration dissolved ([7]; dissolution time 5 min) is on record?
The Norgestimate concentration dissolved was 0.43 µg/mL.

And the Norgestimate concentration dissolved ([7]; dissolution time 60 min)?
Its Norgestimate concentration dissolved is 0.81 µg/mL.

What about the Norgestimate concentration dissolved ([7]; dissolution time 140 min) of the same molecule?
The Norgestimate concentration dissolved was 1.36 µg/mL.

For `C#C[C@]1(OC(C)=O)CC[C@H]2[C@@H]3CCC4=CC(=NO)CC[C@@H]4[C@H]3CC[C@@]21CC` (mixture of isomers) [Amorphous Norgestimate, norgestimate], which Norgestimate concentration dissolved ([7]; dissolution time 5 min) is on record?
The Norgestimate concentration dissolved was 0.44 µg/mL.

And the Norgestimate concentration dissolved ([7]; dissolution time 60 min)?
The Norgestimate concentration dissolved was 1.38 µg/mL.

What about the Norgestimate concentration dissolved ([7]; dissolution time 120 min) of the same molecule?
Its Norgestimate concentration dissolved is 1.88 µg/mL.

What about the “Tc (crystallization of norgestimate)” value [6] of the same molecule?
The value was 105 °C.

What about the “Tg (glass-transition temperature)” value [6] of the same molecule?
Its value is 122-123 °C.

What about the “Stability of Amorphous Norgestimate (onset of norgestimate recrystallization), 0% RH” value [5] of the same molecule?
The value was under 3 days.

And the “Stability of Amorphous Norgestimate (onset of norgestimate recrystallization), 31% RH” value [5]?
The value was “less than 1 days”.

What about the “Stability of Amorphous Norgestimate (onset of norgestimate recrystallization), 76% RH” value [5] of the same molecule?
The value was “less than 1 days”.

And the “Time to complete recrystallization of amorphous norgestimate” value ([5]; room temperature, 0%, 31% and 76% RH (all conditions tested))?
Its value is at most 3 days.
